Entries after “also recorded” stand apart in the source; their conditions may differ. Like-named read-outs stand apart in the source and are kept apart here. Each block holds one compound with its values, some of them ahead of it.
Experiments:
[1] = room temperature; cited from earlier work
[2] = Stability studies (shelf life, visible changes); type: physicochemical
Method: The effects of HPBCD on the shelf life stability of each active agent is studied at pre-determined temperatures for 11 weeks. Real time stability is observed at −17° C., 5° C. and 25° C., and accelerated stability is observed at 40° C. For accelerated stability, one day at 40° C. is equivalent to one week, thus the data represents 77 weeks. […] The vials are then placed in a temperature-controlled oven or refrigerator/freezer. The compounds are checked daily and any visible changes are noted.

[3] = Solubility in water (statements); type: physicochemical
[4] = Skin permeation and delivery, Franz-type vertical diffusion cell; type: in vitro ADME, human; conditions: 0-8 hours
Method: Skin permeation was evaluated using a custom-fabricated Franz-type vertical diffusion cell (FDC). […] Fluid samples can be withdrawn for analysis from the receptor fluid. […] Membranes were defrosted, washed and subjected to visual inspection before use. Skin delivery and permeation studies were performed on six (6) replicates per Active formulation. A finite dose was applied to the surface of the skin under nonocclusive conditions. Dose volume was 10 μl (18 mg/cm^2). The dose was spread using a blunt glass rod. Receptor chambers were inserted in a dry block with an external magnetic stir bar drive that accommodated up to 15 Franz cells per block. […] Receptor well temperature was maintained at 32±0.5° C.; skin surface temperature was maintained at 30±1.0° C. Receptor wells were sampled at three time points, namely 8 hr, 24 hr and 48 hr; 300 μl was removed, loaded in a 96-well plate, and stored at 4-8° C. prior to analysis. Samples were analyzed within 5 days of collection. There was no further preparation of the samples prior to analysis. […] The membrane was […] […] Retention of the Actives in the epidermis and delivery of Actives to the dermis was measured by extracting the Active from each layer individually at twenty-four hours using dimethyl sulfoxide (DMSO). […] After the LC-MS or UV testing was complete, samples were analyzed using ChemStation software (Agilent).

[5] = Phase solubility studies; conditions: active with HPBCD; calculated using Eq. (1)
[6] = 25° C., Week 1, visible changes
[7] = 25° C., Week 2, visible changes
[8] = 25° C., Week 3, visible changes

SMILES: OC[C@H]1O[C@@H]2O[C@H]3[C@H](O)[C@@H](O)[C@@H](O[C@H]4[C@H](O)[C@@H](O)[C@@H](O[C@H]5[C@H](O)[C@@H](O)[C@@H](O[C@H]6[C@H](O)[C@@H](O)[C@@H](O[C@H]7[C@H](O)[C@@H](O)[C@@H](O[C@H]8[C@H](O)[C@@H](O)[C@@H](O[C@H]1[C@H](O)[C@H]2O)O[C@@H]8CO)O[C@@H]7CO)O[C@@H]6CO)O[C@@H]5CO)O[C@@H]4CO)O[C@@H]3CO [β-Cyclodextrin]
solubility in water [1]: approximately 19 mg/mL

Stability of Actives at 5° C. ([2]; 5° C., Week 1, visible changes): 0 | Stability of Actives at 5° C. ([2]; 5° C., Week 2, visible changes): 0 | Stability of Actives at 5° C. ([2]; 5° C., Week 3, visible changes): 0 | Stability of Actives at 5° C. ([2]; 5° C., Week 4, visible changes): 0 | Stability of Actives at 5° C. ([2]; 5° C., Week 5, visible changes): 0 | Stability of Actives at 5° C. ([2]; 5° C., Week 6, visible changes): 0 | Stability of Actives at 5° C. ([2]; 5° C., Week 7, visible changes): 0 | Stability of Actives at 5° C. ([2]; 5° C., Week 8, visible changes): 0 | Stability of Actives at 5° C. ([2]; 5° C., Week 9, visible changes): 0 | Stability of Actives at 5° C. ([2]; 5° C., Week 10, visible changes): 0 | Stability of Actives at 5° C. ([2]; 5° C., Week 11, visible changes): 0 | Stability of Actives at 25° C. [2, 6]: 0 | Stability of Actives at 25° C. [2, 7]: 0 | Stability of Actives at 25° C. [2, 8]: 0 | Stability of Actives at 25° C. ([2]; 25° C., Week 4, visible changes): 0 | Stability of Actives at 25° C. ([2]; 25° C., Week 5, visible changes): 0 | Stability of Actives at 25° C. ([2]; 25° C., Week 6, visible changes): 0 | Stability of Actives at 25° C. ([2]; 25° C., Week 7, visible changes): 0 | Stability of Actives at 25° C. ([2]; 25° C., Week 8, visible changes): 0 | Stability of Actives at 25° C. ([2]; 25° C., Week 9, visible changes): 0 | Stability of Actives at 25° C. ([2]; 25° C., Week 10, visible changes): 0 | Stability of Actives at 25° C. ([2]; 25° C., Week 11, visible changes): 0 | Stability of Actives at 40° C. ([2]; 40° C. accelerated stability, Week 1, visible changes): 0 | Stability of Actives at 40° C. ([2]; 40° C. accelerated stability, Week 2, visible changes): 0 | Stability of Actives at 40° C. ([2]; 40° C. accelerated stability, Week 3, visible changes): 0 | Stability of Actives at 40° C. ([2]; 40° C. accelerated stability, Week 4, visible changes): 0 | Stability of Actives at 40° C. ([2]; 40° C. accelerated stability, Week 5, visible changes): 0 | Stability of Actives at 40° C. ([2]; 40° C. accelerated stability, Week 6, visible changes): 0 | Stability of Actives at 40° C. ([2]; 40° C. accelerated stability, Week 7, visible changes): 0 | Stability of Actives at 40° C. ([2]; 40° C. accelerated stability, Week 8, visible changes): 0 | Stability of Actives at 40° C. ([2]; 40° C. accelerated stability, Week 9, visible changes): 0 | Stability of Actives at 40° C. ([2]; 40° C. accelerated stability, Week 10, visible changes): 0 | Stability of Actives at 40° C. ([2]; 40° C. accelerated stability, Week 11, visible changes): 0
SMILES: Nc1cc(N2CCCCC2)nc(N)[n+]1[O-] [Minoxidil]

Stability of Actives at 5° C. ([2]; 1 week): 0 | Stability of Actives at 25° C. ([2]; 1 week): 0 | Stability of Actives at 40° C. ([2]; 1 week): 0 | Stability of Actives at −17 C. ([2]; 1 week): 0 | Stability of Actives at 5° C. ([2]; 2 week): 0 | Stability of Actives at 25° C. ([2]; 2 week): 0 | Stability of Actives at 40° C. ([2]; 2 week): 0 | Stability of Actives at −17 C. ([2]; 2 weeks): 0 | Stability of Actives at 5° C. ([2]; 3 week): 0 | Stability of Actives at 25° C. ([2]; 3 week): 0 | Stability of Actives at 40° C. ([2]; 3 week): 0 | Stability of Actives at −17 C. ([2]; 3 weeks): 0 | Stability of Actives at 5° C. ([2]; 4 week): 0 | Stability of Actives at 25° C. ([2]; 4 week): 0 | Stability of Actives at 40° C. ([2]; 4 week): 0 | Stability of Actives at −17 C. ([2]; 4 weeks): 0 | Stability of Actives at 5° C. ([2]; 5 week): 0 | Stability of Actives at 25° C. ([2]; 5 week): 0 | Stability of Actives at 40° C. ([2]; 5 week): 0 | Stability of Actives at −17 C. ([2]; 5 week): 0 | Stability of Actives at 5° C. ([2]; 6 week): 0 | Stability of Actives at 25° C. ([2]; 6 week): 0 | Stability of Actives at 40° C. ([2]; 6 week): 0 | Stability of Actives at −17 C. ([2]; 6 week): 0 | Stability of Actives at 5° C. ([2]; 7 week): 0 | Stability of Actives at 25° C. ([2]; 7 week): 0 | Stability of Actives at 40° C. ([2]; 7 week): 0 | Stability of Actives at −17 C. ([2]; 7 week): 0 | Stability of Actives at 5° C. ([2]; 8 week): 0 | Stability of Actives at 25° C. ([2]; 8 week): 0 | Stability of Actives at 40° C. ([2]; 8 week): 0 | Stability of Actives at −17 C. ([2]; 8 week): 0 | Stability of Actives at 5° C. ([2]; 9 week): 0 | Stability of Actives at 25° C. ([2]; 9 week): 0 | Stability of Actives at 40° C. ([2]; 9 week): 0 | Stability of Actives at −17 C. ([2]; 9 week): 0 | Stability of Actives at 5° C. ([2]; 10 week): 0 | Stability of Actives at 25° C. ([2]; 10 week): 0 | Stability of Actives at 40° C. ([2]; 10 week): 0 | Stability of Actives at −17 C. ([2]; 10 weeks): 0 | Stability of Actives at 5° C. ([2]; 11 week): 0 | Stability of Actives at 25° C. ([2]; 11 week): 0 | Stability of Actives at 40° C. ([2]; 11 week): 0 | Stability of Actives at −17 C. ([2]; 11 weeks): 0
SMILES: COc1cc(CCC(=O)CC(=O)CCc2ccc(O)c(OC)c2)ccc1O [Tetrahydrocurcumin]

SMILES: C=C(C)[C@@H]1CCC(C)=C[C@H]1c1c(O)cc(CCCCC)cc1O [CBD, Cannabidiol]
Stability of Actives at 25° C. [2, 6]: 0 | Stability of Actives at 25° C. [2, 7]: 0 | Stability of Actives at 25° C. [2, 8]: 0 | solubility in water [3]: completely insoluble in water; also recorded: poor water solubility | delivered dose, transdermal [4]: no amount of CBD was detected as penetrating through the skin | association constant (Kc) for complex formation [5]: 0.42247 M⁻¹

— patent US20200347153A1, “METHODS FOR FORMING INCLUSION COMPLEXES WITH HYDROPHILIC BETA-CYCLODEXTRIN DERIVATIVES AND COMPOSITIONS THEREOF” (priority 2019, published 2020)
